Experimental data published in paper PMC7407272, “Induction of Lysosome Membrane Permeabilization as a Therapeutic Strategy to Target Pancreatic Cancer Stem Cells” (Cancers, 2020).
Read-outs that look alike come from different tables or passages of the source.

What was measured:
HASPIN = target: T1, HASPIN (Homo sapiens, UniProt Q8TF76); assay: HASPIN ADP GLO kinase assay; type: biochemical; set-up: purchased ProQinase, Freiburg, Germany; settings: 150 μM ATP
T1 sequence (Q8TF76 1-798): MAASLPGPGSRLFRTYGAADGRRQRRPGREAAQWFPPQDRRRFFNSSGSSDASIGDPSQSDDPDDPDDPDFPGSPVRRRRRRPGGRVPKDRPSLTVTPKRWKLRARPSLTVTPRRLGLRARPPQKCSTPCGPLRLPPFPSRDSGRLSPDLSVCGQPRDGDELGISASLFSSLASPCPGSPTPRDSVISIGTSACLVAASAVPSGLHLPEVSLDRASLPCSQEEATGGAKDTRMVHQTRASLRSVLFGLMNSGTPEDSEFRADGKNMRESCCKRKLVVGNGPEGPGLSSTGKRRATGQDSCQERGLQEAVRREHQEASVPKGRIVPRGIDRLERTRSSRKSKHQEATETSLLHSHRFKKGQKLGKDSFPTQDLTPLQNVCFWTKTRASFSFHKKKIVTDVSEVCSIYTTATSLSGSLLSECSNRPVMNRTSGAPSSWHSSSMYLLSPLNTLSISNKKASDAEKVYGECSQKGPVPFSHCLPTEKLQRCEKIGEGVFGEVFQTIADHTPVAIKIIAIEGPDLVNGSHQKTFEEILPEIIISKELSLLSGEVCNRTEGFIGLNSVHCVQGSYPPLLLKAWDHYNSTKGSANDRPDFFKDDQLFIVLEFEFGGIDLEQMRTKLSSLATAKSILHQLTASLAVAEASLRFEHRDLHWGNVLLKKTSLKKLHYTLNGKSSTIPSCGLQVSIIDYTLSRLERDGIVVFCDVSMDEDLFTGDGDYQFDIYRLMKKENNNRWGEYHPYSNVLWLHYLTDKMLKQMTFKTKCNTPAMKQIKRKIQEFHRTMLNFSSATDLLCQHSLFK
Method: (§1) PIM1/3 kinase activities were measured as previously described in Martínez-Gonzalez et al.. HASPIN activity was measured using the commercial ADP GLO assay (Promega), a homogeneous assay measuring ADP accumulation, as a universal product of kinase activity. The assay was done following general manufacturer recommendations and adapting protein to optimal conditions.

PIM3 = PIM3 (Homo sapiens, UniProt Q86V86); assay: PIM kinase activity assay; type: biochemical
Method: as §1

PIM1 = PIM1 (Homo sapiens, UniProt P11309); assay: PIM kinase activity assay; type: biochemical
Method: as §1

[1] = tested on: sphere-derived PDAC2 cells; assay: Tumor initiating capacity of pre-treated cells injected subcutaneously; type: in vivo, NU-Foxn1nu nude mice; settings: cells treated 3 days with 0.1 µg/mL GEM or compound at 1.25 µM, then injected subcutaneously
Method: Female 6- to 8-week-old NU-Foxn1nu nude mice (Envigo, Spain) were subcutaneously injected with control or pre-treated 1 × 10^4 PDAC cells in 50 µL of Matrigel^TM (Corning). Tumor growth was monitored bi-weekly for up to 10 weeks. For Siramesine experiments, mice were subcutaneously implanted with PDAC1 and PDAC3 PDXs. After 4 weeks of tumor growth, mice were randomized into treatment groups (5 mice per group). Mice were treated with Siramesine twice a week (30 mg/kg by oral gavage formulated in 0.5% methylcellulose 15 cP in 0.9% NaCl solution) for ~4 weeks. Gemcitabine (GEMZAR®, Eli Lilly, Indianapolis, IN, USA) was administered twice a week (125 mg/kg i.p.) for ~4 weeks. Tumor volumes (mm^3) were determined twice per week using a digital caliper. Mice were sacrificed at 24 days post treatment initiation and tumors were extracted and analyzed by flow cytometry as described above. For second generation tumor formation, 1000 and 100 cells of indicated treatment groups were resuspended in Matrigel ^TM and injected subcutaneously in recipient NU-Foxn1nu nude mice and tumor formation was monitored for 10 weeks. Mice were housed according to institutional guidelines and all experiments were performed in compliance with the institutional guidelines for the welfare of experimental animals approved by the Universidad Autónoma de Madrid Ethics Committee (CEI 60-1057-A068) or by the Instituto de Salud Carlos III Ethics Committee (CBA12_2014-v3) and La Comunidad de Madrid (PROEX 335/14 or PROEX 53/14) and in accordance with the guidelines for Ethical Conduct in the Care and Use of Animals as stated in The International Guiding Principles for Biomedical Research involving Animals, developed by the Council for International Organizations of Medical Sciences (CIOMS).

[2] = mESC viability (MTS) screen and dose response; type: cell-based, mouse; settings: mouse, mouse embryonic stem cells (mESCs), 5 µM, MTS
Method: (§2) Mouse embryonic stem cells were cultured in Dulbecco’s Modified Eagle Medium (DMEM) containing 15% Fetal bovine serum (FBS), non-essential amino acids (NEAA), 2-mercaptoethanol, and Leukemia inhibitory factor (LIF) and passaged on gelatinized plates under standard conditions.
(§3) Murine embryonic stem cells (mESCs) were plated at 20,000 cells per well in gelatinized 96 well plates. Compounds from the 640 compound ETP library were added by a Beckman FX 96 tip to achieve a final concentration of 5 µM in each well, and each compound was tested in duplicate. Cells were treated for a total of 30 h prior to assessing cell viability using CellTiter 96® AQueous One Solution Cell Proliferation Assay (MTS) assay according to manufacturer’s instructions (G3582, Promega, Madison, WI, USA). Dose response curves were carried out on mESCs under the same conditions using indicated compounds. To test the viability of CSCs, 10,000 PDAC cells were plated in spheroid conditions and immediately treated with indicated compounds and concentrations for the duration of the sphere formation assay. For adherent non-CSCs, 20,000 cells were plated in wells of standard tissue culture-treated plates (Corning, Corning, NY, USA) and treated the following day with indicated compounds and concentrations. For re-plated spheres (Figure S1B), 7-day-old spheres were filtered using a 40 µM filter (Fisher Scientific, Hampton, NH, USA), washed once with 1× PBS, and incubated with trypsin 0.05% EDTA at 37 °C (Thermo Fisher Scientific, Waltham, MA, USA) to achieve a single cell suspension (approximately 10–30 min, depending on the PDAC culture). Trypsinized cells were counted and 20,000 cells were plated in wells of standard tissue culture-treated plates (Corning) and treated the following day with indicated compounds and concentrations.

[3] = tested on: mouse embryonic stem cells (mESCs); assay: mESC viability (MTS) screen and dose response; type: cell-based; settings: Mus musculus, Embryonic stem cell, 30 h
Method: as §2, §3

PIM1, sequence (P11309 whole entry): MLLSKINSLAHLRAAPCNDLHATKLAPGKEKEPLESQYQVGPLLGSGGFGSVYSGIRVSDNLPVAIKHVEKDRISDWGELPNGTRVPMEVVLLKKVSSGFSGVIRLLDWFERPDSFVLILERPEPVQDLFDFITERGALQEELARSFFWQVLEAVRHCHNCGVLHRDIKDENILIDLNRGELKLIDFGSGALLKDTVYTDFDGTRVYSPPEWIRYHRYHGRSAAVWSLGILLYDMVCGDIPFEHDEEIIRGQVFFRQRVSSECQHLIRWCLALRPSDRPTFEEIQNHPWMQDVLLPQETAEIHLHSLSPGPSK

| SMILES | IC50 (HASPIN) [µM] | IC50 (PIM3) [µM] | IC50 (PIM1) [µM] | tumor formation / growth from pre-treated cells [1] | viability at 30 h, 5 µM [2] [%] | EC50 [3] [µM] | IC50 (HASPIN; kinase orthogonal assay) [µM] | IC50 (PIM3; kinase orthogonal assay) [µM] | IC50 (PIM1; kinase orthogonal assay) [µM] |
| --- | --- | --- | --- | --- | --- | --- | --- | --- | --- |
| COc1nc2ccc(NCC3CCN(C)CC3)nn2c1C(=O)Nc1cccc(OC(F)(F)F)c1 [Cpd 1] | > 10 | > 10 | > 10 | complete inhibition in tumor formation | 8 | 1.33 | – | – | – |
| CN1CCC(CNc2ccc3ncc(C(=O)Nc4cccc(OC(F)(F)F)c4)n3n2)CC1 [Cpd 2] | – | – | – | reduced | 19 | 2.05 | 0.915 | 0.129 | 0.098 |
